Values after ≈ are worked out from the molar mass of the structure shown.
Key:
Assay type in all cases: functional
Streptococcus pneumoniae [1] = experiment: Antibacterial activity against Streptococcus pneumoniae 994 expressing mef gene by NCCLS method
Streptococcus pyogenes = experiment: Antibacterial activity against Streptococcus pyogenes 19615 by NCCLS method
Haemophilus influenzae = experiment: Antibacterial activity against Haemophilus influenzae 38 by NCCLS method
Moraxella catarrhalis = experiment: Antibacterial activity against Moraxella catarrhalis 8176 by NCCLS method
Streptococcus pneumoniae [2] = experiment: Antibacterial activity against Streptococcus pneumoniae 6303 by NCCLS method
Streptococcus pneumoniae [3] = experiment: Antibacterial activity against Streptococcus pneumoniae 49619 by NCCLS method
Streptococcus pneumoniae [4] = experiment: Antibacterial activity against Streptococcus pneumoniae 3579 expressing erm gene by NCCLS method

Structure (SMILES) | MIC (Streptococcus pneumoniae [1]) [µg/mL] | MIC (Streptococcus pyogenes) [µg/mL] | MIC (Haemophilus influenzae) [µg/mL] | MIC (Moraxella catarrhalis) [µg/mL] | MIC (Streptococcus pneumoniae [2]) [µg/mL] | MIC (Streptococcus pneumoniae [3]) [µg/mL] | MIC (Streptococcus pneumoniae [4]) [µg/mL]
CC[C@H]1OC(=O)[C@H](C)[C@@H](OC(=O)Cc2ccccn2)[C@H](C)[C@@H](O[C@@H]2O[C@H](C)C[C@H](N(C)CC)[C@H]2O)[C@](C)(OC)C[C@@H](C)C(=O)[C@H](C)[C@H]2N(CCCCn3cnc4ncccc43)C(=O)O[C@]12C | 0.25 (≈ 0.271 µM) | 0.03 (≈ 0.0326 µM) | 0.06 (≈ 0.0651 µM) | 0.125 (≈ 0.136 µM) | 0.06 (≈ 0.0651 µM) | 0.015 (≈ 0.0163 µM) | 0.25 (≈ 0.271 µM)
CC[C@H]1OC(=O)[C@H](C)[C@@H](OC(=O)Cc2cccnc2)[C@H](C)[C@@H](O[C@@H]2O[C@H](C)C[C@H](N(C)CC)[C@H]2O)[C@](C)(OC)C[C@@H](C)C(=O)[C@H](C)[C@H]2N(CCCCn3cnc(-c4ccc(N)nc4)c3)C(=O)O[C@]12C | 0.125 (≈ 0.13 µM) | 0.03 (≈ 0.0312 µM) | 0.125 (≈ 0.13 µM) | 0.125 (≈ 0.13 µM) | 0.06 (≈ 0.0624 µM) | 0.06 (≈ 0.0624 µM) | 0.25 (≈ 0.26 µM)
C=CCN(C)[C@H]1C[C@@H](C)O[C@@H](O[C@@H]2[C@@H](C)[C@H](OC(=O)Cc3ccccn3)[C@@H](C)C(=O)O[C@H](CC)[C@@]3(C)OC(=O)N(CCCCn4cnc(-c5cccc(N)c5)c4)[C@@H]3[C@@H](C)C(=O)[C@H](C)C[C@@]2(C)OC)[C@@H]1O | 0.06 (≈ 0.0617 µM) | 0.03 (≈ 0.0308 µM) | < 0.06 | 0.125 (≈ 0.128 µM) | 0.03 (≈ 0.0308 µM) | 0.03 (≈ 0.0308 µM) | 0.125 (≈ 0.128 µM)
CC[C@H]1OC(=O)[C@H](C)[C@@H](OC(=O)Cc2ccccn2)[C@H](C)[C@@H](O[C@@H]2O[C@H](C)C[C@H](N(C)CC)[C@H]2O)[C@](C)(OC)C[C@@H](C)C(=O)[C@H](C)[C@H]2N(CCCCn3cnc(-c4cccnc4)c3)C(=O)O[C@]12C | 0.06 (≈ 0.0633 µM) | 0.06 (≈ 0.0633 µM) | 1 (≈ 1.06 µM) | 0.25 (≈ 0.264 µM) | 0.06 (≈ 0.0633 µM) | 0.015 (≈ 0.0158 µM) | 1 (≈ 1.06 µM)
CC[C@H]1OC(=O)[C@H](C)[C@@H](OC(=O)Cc2cccnc2)[C@H](C)[C@@H](O[C@@H]2O[C@H](C)C[C@H](N(C)CC)[C@H]2O)[C@](C)(OC)C[C@@H](C)C(=O)[C@H](C)[C@H]2N(CCCCn3cnc4ncccc43)C(=O)O[C@]12C | 0.25 (≈ 0.271 µM) | 0.03 (≈ 0.0326 µM) | < 0.03 | 0.25 (≈ 0.271 µM) | 0.06 (≈ 0.0651 µM) | 0.03 (≈ 0.0326 µM) | 2 (≈ 2.17 µM)
C=CCN(C)[C@H]1C[C@@H](C)O[C@@H](O[C@@H]2[C@@H](C)[C@H](OC(=O)Cc3ccccn3)[C@@H](C)C(=O)O[C@H](CC)[C@@]3(C)OC(=O)N(CCCCn4cnc(-c5ccoc5)c4)[C@@H]3[C@@H](C)C(=O)[C@H](C)C[C@@]2(C)OC)[C@@H]1O | 0.125 (≈ 0.132 µM) | 0.06 (≈ 0.0633 µM) | 0.25 (≈ 0.264 µM) | 0.125 (≈ 0.132 µM) | 0.06 (≈ 0.0633 µM) | 0.015 (≈ 0.0158 µM) | 0.125 (≈ 0.132 µM)
CC[C@H]1OC(=O)[C@H](C)[C@@H](O[C@H]2C[C@@](C)(OC)[C@@H](O)[C@H](C)O2)[C@H](C)[C@@H](O[C@@H]2O[C@H](C)C[C@H](N(C)C)[C@H]2O)[C@](C)(O)C[C@@H](C)CN(C)[C@H](C)[C@@H](O)[C@]1(C)O [AZITHROMYCIN] | 1 (≈ 1.34 µM) | 0.25 (≈ 0.334 µM) | > 16 | 16 (≈ 21.4 µM) | 0.25 (≈ 0.334 µM) | 0.25 (≈ 0.334 µM) | 16 (≈ 21.4 µM)
C=CCN(C)[C@H]1C[C@@H](C)O[C@@H](O[C@@H]2[C@@H](C)[C@H](OC(=O)Cc3ccccn3)[C@@H](C)C(=O)O[C@H](CC)[C@@]3(C)OC(=O)N(CCCCn4cnc5c(N)ncnc54)[C@@H]3[C@@H](C)C(=O)[C@H](C)C[C@@]2(C)OC)[C@@H]1O | 0.125 (≈ 0.132 µM) | 0.03 (≈ 0.0316 µM) | 0.125 (≈ 0.132 µM) | 0.125 (≈ 0.132 µM) | 0.125 (≈ 0.132 µM) | 0.06 (≈ 0.0632 µM) | 0.5 (≈ 0.527 µM)
C=CCN(C)[C@H]1C[C@@H](C)O[C@@H](O[C@@H]2[C@@H](C)[C@H](OC(=O)Cc3ccccn3)[C@@H](C)C(=O)O[C@H](CC)[C@@]3(C)OC(=O)N(CCCCn4cnc(-c5cccnc5)c4)[C@@H]3[C@@H](C)C(=O)[C@H](C)C[C@@]2(C)OC)[C@@H]1O | 0.125 (≈ 0.13 µM) | 0.008 (≈ 0.00834 µM) | 0.125 (≈ 0.13 µM) | 0.125 (≈ 0.13 µM) | 0.015 (≈ 0.0156 µM) | 0.008 (≈ 0.00834 µM) | 0.25 (≈ 0.261 µM)
C=CCN(C)[C@H]1C[C@@H](C)O[C@@H](O[C@@H]2[C@@H](C)[C@H](OC(=O)Cc3cccnc3)[C@@H](C)C(=O)O[C@H](CC)[C@@]3(C)OC(=O)N(CCCCn4cnc(-c5cccnc5)c4)[C@@H]3[C@@H](C)C(=O)[C@H](C)C[C@@]2(C)OC)[C@@H]1O | 0.125 (≈ 0.13 µM) | 0.06 (≈ 0.0626 µM) | 0.125 (≈ 0.13 µM) | 0.25 (≈ 0.261 µM) | 0.03 (≈ 0.0313 µM) | 0.03 (≈ 0.0313 µM) | 1 (≈ 1.04 µM)

Source: ChEMBL document CHEMBL1933046, “Synthesis and antibacterial activity of a novel series of acylides active against community acquired respiratory pathogens” (2012)
